Test results: patent publication US20090022757A1, “Method for treating photoreceptor cell degeneration” (priority 2007, published 2009)

Assays:
[1] = system: rat retinal photoreceptor; experiment: Electroretinogram of rats treated with different MNU dosages; settings: for Number of Eyes with extinguished electroretinogram: n = 10
[2] = system: rat retinal photoreceptor cells; experiment: Pathological examination (damage score) of retinal photoreceptor cells in rats treated with different MNU dosages

## CN(N=O)C(N)=O [MNU, N-methyl-N-nitrosourea]
[1]
  initial dosage that could cause maximum decrease of a-wave and b-wave amplitudes of electroretinogram: 40 mg/kg
  lowest dosage which could shorten the a-wave and b-wave latent period of rats electroretinogram to the greatest extent: 40 mg/kg
[1]; MNU 30 mg/kg, 12 h
  a-wave amplitude of electroretinogram: 42.24 ± 7.71
  a-wave latent period of electroretinogram: 17.97 ± 2.50
  b-wave amplitude of electroretinogram: 195.8 ± 33.45
  b-wave latent period of electroretinogram: 73.7 ± 6.94
  Number of Eyes with extinguished electroretinogram: 0
[1]; MNU 30 mg/kg, 1 d
  a-wave amplitude of electroretinogram: 34.10 ± 6.35
  a-wave latent period of electroretinogram: 17.82 ± 2.59
  b-wave amplitude of electroretinogram: 153.6 ± 28.76
  b-wave latent period of electroretinogram: 70.41 ± 6.11
  Number of Eyes with extinguished electroretinogram: 0
[1]; MNU 30 mg/kg, 3 d
  a-wave amplitude of electroretinogram: 33.14 ± 9.15
  a-wave latent period of electroretinogram: 17.44 ± 2.40
  b-wave amplitude of electroretinogram: 132.0 ± 24.85
  b-wave latent period of electroretinogram: 67.42 ± 7.05
  Number of Eyes with extinguished electroretinogram: 0
[1]; MNU 30 mg/kg, 7 d
  a-wave amplitude of electroretinogram: 41.11 ± 10.14
  a-wave latent period of electroretinogram: 17.66 ± 2.55
  b-wave amplitude of electroretinogram: 156.5 ± 34.85
  b-wave latent period of electroretinogram: 70.28 ± 6.02
  Number of Eyes with extinguished electroretinogram: 0
[1]; MNU 30 mg/kg, 10 d
  a-wave amplitude of electroretinogram: 44.17 ± 11.13
  a-wave latent period of electroretinogram: 17.30 ± 2.24
  b-wave amplitude of electroretinogram: 188.7 ± 27.7
  b-wave latent period of electroretinogram: 70.31 ± 7.29
  Number of Eyes with extinguished electroretinogram: 0
[1]; MNU 35 mg/kg, 12 h
  a-wave amplitude of electroretinogram: 40.34 ± 8.37
  a-wave latent period of electroretinogram: 17.32 ± 5.87
  b-wave amplitude of electroretinogram: 185.3 ± 23.41
  b-wave latent period of electroretinogram: 73.61 ± 6.37
  Number of Eyes with extinguished electroretinogram: 0
[1]; MNU 35 mg/kg, 1 d
  a-wave amplitude of electroretinogram: 33.20 ± 12.11
  a-wave latent period of electroretinogram: 16.98 ± 2.46
  b-wave amplitude of electroretinogram: 107.52 ± 17.38
  b-wave latent period of electroretinogram: 73.12 ± 6.69
  Number of Eyes with extinguished electroretinogram: 0
[1]; MNU 35 mg/kg, 3 d
  a-wave amplitude of electroretinogram: 30.38 ± 9.61
  a-wave latent period of electroretinogram: 16.83 ± 2.62
  b-wave amplitude of electroretinogram: 104.88 ± 21.83
  b-wave latent period of electroretinogram: 68.15 ± 6.68
  Number of Eyes with extinguished electroretinogram: 0
[1]; MNU 35 mg/kg, 7 d
  a-wave amplitude of electroretinogram: 36.75 ± 7.28
  a-wave latent period of electroretinogram: 17.77 ± 2.25
  b-wave amplitude of electroretinogram: 135.44 ± 22.58
  b-wave latent period of electroretinogram: 73.37 ± 7.73
  Number of Eyes with extinguished electroretinogram: 0
[1]; MNU 35 mg/kg, 10 d
  a-wave amplitude of electroretinogram: 40.76 ± 8.92
  a-wave latent period of electroretinogram: 17.46 ± 2.41
  b-wave amplitude of electroretinogram: 168.7 ± 32.14
  b-wave latent period of electroretinogram: 73.51 ± 5.61
  Number of Eyes with extinguished electroretinogram: 0
[1]; MNU 40 mg/kg, 12 h
  a-wave amplitude of electroretinogram: 17.18 ± 15.90
  a-wave latent period of electroretinogram: 10.53 ± 9.18
  b-wave amplitude of electroretinogram: 54.40 ± 46.33
  b-wave latent period of electroretinogram: 41.09 ± 35.82
  Number of Eyes with extinguished electroretinogram: 4
[1]; MNU 40 mg/kg, 1 d
  a-wave amplitude of electroretinogram: 9.44 ± 12.38
  a-wave latent period of electroretinogram: 7.02 ± 9.15
  b-wave amplitude of electroretinogram: 23.09 ± 30.15
  b-wave latent period of electroretinogram: 27.85 ± 36.29
  Number of Eyes with extinguished electroretinogram: 6
[1]; MNU 40 mg/kg, 3 d
  a-wave amplitude of electroretinogram: 3.62 ± 7.66
  a-wave latent period of electroretinogram: 3.17 ± 6.69
  b-wave amplitude of electroretinogram: 12.23 ± 26.02
  b-wave latent period of electroretinogram: 12.20 ± 4.24
  Number of Eyes with extinguished electroretinogram: 8
[1]; MNU 40 mg/kg, 7 d
  a-wave amplitude of electroretinogram: 4.23 ± 9.27
  a-wave latent period of electroretinogram: 3.37 ± 7.15
  b-wave amplitude of electroretinogram: 13.14 ± 27.85
  b-wave latent period of electroretinogram: 12.33 ± 26.05
  Number of Eyes with extinguished electroretinogram: 8
[1]; MNU 40 mg/kg, 10 d
  a-wave amplitude of electroretinogram: 9.54 ± 12.89
  a-wave latent period of electroretinogram: 6.64 ± 8.61
  b-wave amplitude of electroretinogram: 24.25 ± 31.58
  b-wave latent period of electroretinogram: 27.31 ± 35.56
  Number of Eyes with extinguished electroretinogram: 6
[1]; MNU 45 mg/kg, 12 h
  a-wave amplitude of electroretinogram: 0
  a-wave latent period of electroretinogram: 6.60 ± 9.55
  b-wave amplitude of electroretinogram: 0
  b-wave latent period of electroretinogram: 25.08 ± 8.55
  Number of Eyes with extinguished electroretinogram: 6
[1]; MNU 45 mg/kg, 1 d
  a-wave amplitude of electroretinogram: 0
  a-wave latent period of electroretinogram: 0
  b-wave amplitude of electroretinogram: 0
  b-wave latent period of electroretinogram: 0
  Number of Eyes with extinguished electroretinogram: 10
[1]; MNU 45 mg/kg, 3 d
  a-wave amplitude of electroretinogram: 0
  a-wave latent period of electroretinogram: 0
  b-wave amplitude of electroretinogram: 0
  b-wave latent period of electroretinogram: 0
  Number of Eyes with extinguished electroretinogram: 10
[1]; MNU 45 mg/kg, 7 d
  a-wave amplitude of electroretinogram: 0
  a-wave latent period of electroretinogram: 0
  b-wave amplitude of electroretinogram: 0
  b-wave latent period of electroretinogram: 0
  Number of Eyes with extinguished electroretinogram: 10
[1]; MNU 45 mg/kg, 10 d
  a-wave amplitude of electroretinogram: 4.89 ± 10.48
  a-wave latent period of electroretinogram: 6.47 ± 7.33
  b-wave amplitude of electroretinogram: 11.31 ± 23.93
  b-wave latent period of electroretinogram: 14.42 ± 30.46
  Number of Eyes with extinguished electroretinogram: 8
[1]; MNU 50 mg/kg, 12 h
  a-wave amplitude of electroretinogram: 0
  a-wave latent period of electroretinogram: 0
  Number of Eyes with extinguished electroretinogram: 10
[1]; MNU 50 mg/kg, 1 d
  a-wave amplitude of electroretinogram: 0
  a-wave latent period of electroretinogram: 0
  Number of Eyes with extinguished electroretinogram: 10
[1]; MNU 50 mg/kg, 3 d
  a-wave amplitude of electroretinogram: 0
  a-wave latent period of electroretinogram: 0
  Number of Eyes with extinguished electroretinogram: 10
[1]; MNU 50 mg/kg, 7 d
  a-wave amplitude of electroretinogram: 0
  a-wave latent period of electroretinogram: 0
  Number of Eyes with extinguished electroretinogram: 10
[1]; MNU 50 mg/kg, 10 d
  a-wave amplitude of electroretinogram: 0
  a-wave latent period of electroretinogram: 0
  Number of Eyes with extinguished electroretinogram: 10
[2]
  minimum dosage that could cause damage to the entire outer nuclear layer cell of rat retinal: 40 mg/kg
[2]; MNU 30 mg/kg, 12 h
  Damage score of rat retinal photoreceptor cells: 0.20 ± 0.42
[2]; MNU 30 mg/kg, 1 d
  Damage score of rat retinal photoreceptor cells: 0.40 ± 0.52
[2]; MNU 30 mg/kg, 3 d
  Damage score of rat retinal photoreceptor cells: 0.40 ± 0.52
[2]; MNU 30 mg/kg, 7 d
  Damage score of rat retinal photoreceptor cells: 0.20 ± 0.42
[2]; MNU 30 mg/kg, 10 d
  Damage score of rat retinal photoreceptor cells: 0
[2]; MNU 35 mg/kg, 12 h
  Damage score of rat retinal photoreceptor cells: 0.20 ± 0.42
[2]; MNU 35 mg/kg, 1 d
  Damage score of rat retinal photoreceptor cells: 0.60 ± 0.52
[2]; MNU 35 mg/kg, 3 d
  Damage score of rat retinal photoreceptor cells: 0.80 ± 0.42
[2]; MNU 35 mg/kg, 7 d
  Damage score of rat retinal photoreceptor cells: 0.40 ± 0.52
[2]; MNU 35 mg/kg, 10 d
  Damage score of rat retinal photoreceptor cells: 0
[2]; MNU 40 mg/kg, 12 h
  Damage score of rat retinal photoreceptor cells: 1.00 ± 0.67
[2]; MNU 40 mg/kg, 1 d
  Damage score of rat retinal photoreceptor cells: 2.20 ± 1.03
[2]; MNU 40 mg/kg, 3 d
  Damage score of rat retinal photoreceptor cells: 4.60 ± 3.10
[2]; MNU 40 mg/kg, 7 d
  Damage score of rat retinal photoreceptor cells: 7.60 ± 6.29
[2]; MNU 40 mg/kg, 10 d
  Damage score of rat retinal photoreceptor cells: 7.40 ± 6.44
[2]; MNU 45 mg/kg, 12 h
  Damage score of rat retinal photoreceptor cells: 1.6 ± 0.52
[2]; MNU 45 mg/kg, 1 d
  Damage score of rat retinal photoreceptor cells: 4.00 ± 2.31
[2]; MNU 45 mg/kg, 3 d
  Damage score of rat retinal photoreceptor cells: 6.80 ± 5.27
[2]; MNU 45 mg/kg, 7 d
  Damage score of rat retinal photoreceptor cells: 9.60 ± 5.95
[2]; MNU 45 mg/kg, 10 d
  Damage score of rat retinal photoreceptor cells: 9.20 ± 6.20
[2]; MNU 50 mg/kg, 12 h
  Damage score of rat retinal photoreceptor cells: 2.40 ± 1.43
[2]; MNU 50 mg/kg, 1 d
  Damage score of rat retinal photoreceptor cells: 6.80 ± 5.27
[2]; MNU 50 mg/kg, 3 d
  Damage score of rat retinal photoreceptor cells: 10.04 ± 5.06
[2]; MNU 50 mg/kg, 7 d
  Damage score of rat retinal photoreceptor cells: 11.20 ± 5.27
[2]; MNU 50 mg/kg, 10 d
  Damage score of rat retinal photoreceptor cells: 11.20 ± 5.27
